Values joined by “and” are separate entries in the source; they are usually repeats but may differ in a detail not shown here. Equal entries are not always repeated.

Data set [1] has as its system β-TC-6 cells. The data set can be described thus: Glucose-induced insulin secretion by β-TC-6 cells (insulin ELISA of supernatants). To be noted: for % Control (insulin secretion, individual values) / Average % Control (insulin secretion): β-TC-6 cells; for Insulin: glucose-induced insulin secretion by β-TC-6 cells, stimulation of 11 mM glucose, control 53. Type of data set: cell-based. How it is done:
β-TC-6 cells where used to determine if compounds according to the present invention were able to induce the production of insulin with or without stimulation with glucose. Briefly, β-TC-6 cells (200,000 cells/ml) were incubated in DMEM media and 15% heat inactivated serum in presence of absence of glucose (0.8M) with/without Compound I for 30 minutes and further incubated for 2 hours with a solution of Krebs containing 2.5, 11 and 25 mM glucose. Supernatants were collected and used for the detection of insulin (ELISA) performed as recommended by the supplier.
A general note: In an ELISA, binding on a coated surface is turned into a signal by an enzyme label.

The test system of data set [2] is uninephrectomized db/db mice. The data set can be described thus: Blood triglycerides level in serum of uninephrectomized db/db mice. The data set is classed as in vivo. To be noted: 10 or 50 mg/kg. How it is done: (§1) Male Lepr db (db/db) and age- and sex-matched control mice with the same genetic background (C57BL/6) were used. Animals were randomized using blood sugar measurement (5-hours starved) at week 6 and uninephrectomy (removal of right kidney) was performed. Sham animals (C57BL/6) underwent exposition of the right kidney. Animals that underwent the sham operation were given vehicle (saline) and were used as negative controls. C57BL/6 mice that were uninephrectomized were given vehicle and were used as positive controls. Db/db mice were treated with oral administration of compound I at 10 and 50 mg/kg per day for 105 days. Serum glucose was measured every two to four weeks.
It is known that blood triglycerides is often associated with diabetes. High triglyceride levels in the blood tend to coexist with low levels of HDL (“good”) cholesterol, contributing to a condition called diabetic dyslipidemia. It is also known that a combination of high triglycerides, low HDL and central obesity are the hallmarks of the metabolic syndrome, which occurs in a majority people with type 2 diabetes.

Data set [3] relates to uninephrectomized db/db mice. The data set can be described thus: Diabetic mouse (db/db) model, uninephrectomized: blood glucose, insulin, glucose/insulin ratio, islet insulin staining. Type of data set: in vivo. As to conditions: for blood glucose level: 105 days. On the procedure:
as §1

[4] abbreviates: glucose 11 mM, Compound I 40 μM.
The mark [5] stands for this setting: glucose 11 mM, Compound I 80 μM.
Setting [6] is: 50 mg/kg per day oral, NX db/db mice.
[7] abbreviates: uninephrectomized db/db mice, dose not stated in legend.

Regarding `CCCCCc1cc(CCCCC)cc(CC(=O)[O-])c1.[Na+]` [Compound I, Sodium 2-[3,5-Dipentylphenyl]acetate], the melting point (commonly the temperature, or range, at which the solid turns liquid) is 225 to 230 °C. Further, in data set [1] (setting [4]), the “% Control (insulin secretion, individual values)” value was 195.41 % Control and 187.16 % Control and 135.78 % Control and 149.35 % Control and 151.88 % Control and 143.13 % Control; the “Average % Control (insulin secretion)” value was 160.45 % Control. Also, in data set [1] (setting [5]), the “% Control (insulin secretion, individual values)” value was 192.66 % Control and 174.31 % Control and 203.67 % Control and 145.51 % Control and 129.29 % Control and 200.78 % Control; the “Average % Control (insulin secretion)” value worked out at 174.37 % Control. Further, the Insulin in data set [1] was 76 ng/mL. In addition, in data set [1] (no glucose, Compound I 40 μM), the “% Control (insulin secretion, individual values)” value was 53.76 % Control and 86.02 % Control and 47.31 % Control and 155.22 % Control and 135.63 % Control and 130.81 % Control; the “Average % Control (insulin secretion)” value came to 101.46 % Control. For the same compound, in data set [1] (no glucose, Compound I 80 μM), the “% Control (insulin secretion, individual values)” value was 79.57 % Control and 38.71 % Control and 70.97 % Control and 123.28 % Control and 114.63 % Control and 177.33 % Control; the “Average % Control (insulin secretion)” value is reported as 100.75 % Control. Moreover, in data set [1] (with or without glucose), the “glucose-induced insulin production in β-TC-6 cells” value is listed as “increased with Compound I in presence of glucose only”. Besides, the “blood triglyceride level in serum” value in data set [2] is reported as “reduced the blood triglyceride level”. The blood glucose level entry in data set [3] (10 mg/kg per day oral, compared to NX db/db) is given as “reduces blood glucose compare to NX db/db but stay stable over time”. Further, the insulin level entry in data set [3] (10 mg/kg per day oral, NX db/db mice) is “keeps a high insulin level (stabilization compare to Day 0)”. Besides, in data set [3] (setting [6]), the blood glucose level result is on record as “induces a significant decrease in blood glucose to a normal level” and the insulin level result is recorded as “reduces the insulin level close to a normal level”. Besides, in data set [3] (both concentrations (10 or 50 mg/kg), db/db Nx mice), the “histoimmunostaining of insulin in the pancreatic islets” value is reported as “reverses the loss of insulin detection”. Also, the “glucose/insulin ratio (insulin resistance)” value in data set [3] (day 33, uninephrectomized db/db mice) is recorded as “reduces the glucose/insulin ratio”. For the same compound, in data set [3] (day 105, uninephrectomized db/db mice), the “glucose/insulin ratio (insulin resistance)” value is “reduces the glucose/insulin ratio”. Also, in data set [3] (setting [7]), the “blood glucose level (FIG. 1 legend)” value is “reduces blood glucose level down to normal level” and the “insulin secretion (FIG. 2 legend)” value is “reverses the fall of insulin secretion”.

In turn, `CCCCCCc1cc(CCCCCC)cc(CC(=O)[O-])c1.[Na+]` [Compound II, Sodium Salt of 2-(3,5-Dihexylphenyl)acetic acid] had an Insulin in data set [1] of 123 ng/mL.

`CCCCCc1cc(CCCCC)c(O)c(CC(=O)[O-])c1.[Na+]` [Compound III, Sodium Salt of 2-(2-Hydroxy-3,5-dipentylphenyl)acetic acid]: the Insulin in data set [1] came to 109 ng/mL.

In turn, `CCCCCCc1cc(CCCCCC)c(O)c(CC(=O)[O-])c1.[Na+]` [Compound IV, Sodium Salt of 2-(3,5-Dihexyl-2-hydroxyphenyl)acetic acid] displayed an Insulin in data set [1] of 147 ng/mL.

As for `CCCCCc1cc(CCCCC)c(Cc2ccccc2)c(CC(=O)[O-])c1.[Na+]` [Compound IX, Sodium Salt of 2-(2-Benzyl-3,5-dipentylphenyl)acetic Acid], the Insulin in data set [1] amounted to 110 ng/mL.

Consider `CCCCCc1cc(CC(=O)[O-])cc(CCCCC)c1O.[Na+]` [Compound V, Sodium Salt of 2-(4-Hydroxy-3,5-dipentylphenyl)acetic acid], for which the Insulin in data set [1] turned out to be 59 ng/mL.

Compound `CCCCCCc1cc(CC(=O)[O-])cc(CCCCCC)c1O.[Na+]` [Compound VI, Sodium Salt of 2-(3,5-Dihexyl-4-hydroxyphenyl)acetic acid] came in with an Insulin in data set [1] of 67 ng/mL.

Compound `CCCCCc1cc(CC(=O)[O-])cc(CCCCC)c1F.[Na+]` [Compound VIII, Sodium Salt of 2-(4-Fluoro-3,5-dipentylphenyl)acetic acid] showed an Insulin in data set [1] of 64 ng/mL.

Consider `CCC/C=C/c1cc(/C=C/CCC)cc(CC(=O)[O-])c1.[Na+]` [Compound X, Sodium 2-[3,5-Di[(E)-Pent-1-enyl]phenyl]acetate], for which the Insulin in data set [1] amounted to 102 ng/mL.

In the case of `CCCCCc1cc(CCCCC)cc(CCC(=O)[O-])c1.[Na+]` [Compound XI, Sodium 3-[3,5-Dipentylphenyl]propanoate], the Insulin in data set [1] came out at 89 ng/mL.

On to `CCCC/C=C/c1cc(/C=C/CCCC)cc(CC(=O)[O-])c1.[Na+]` [Compound XII, Sodium Salt of 2-(3,5-Di((E)-hex-1-enyl)phenyl)acetic acid], for which the Insulin in data set [1] came out at 70 ng/mL.

The record behind these values is US10105331B2, “Substituted aromatic compounds and pharmaceutical compositions for the prevention and treatment of diabetes” (PROMETIC PHARMA SMT LIMITED, priority 2014, dated 2018).
